Measurements as given in the supplement of paper PMC3974653.
Structures can show the parent of a compound that is named as a salt.

System: MTT (mouse pheochromocytoma)
Experiment: IC50 of cell viability (ATP content)
Conditions: (24 or 48 h)
How it was run: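 Library compounds in DMSO (23 nl by pintool, 8 concentrations, final 0.5 nM to 46 µM) were applied for 24 or 48 hrs to MTT mouse pheochromocytoma cells that had been cultured overnight at 37°C, 5% CO2 in white 1536-well plates. Cell viability was measured by CellTiter-Glo ATP luminescence, read after 15 minutes, with positive-control wells set at 100% and DMSO wells at 0%. A four-parameter logistic fit of the normalised signals yielded the IC50.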

Row | Compound | IC50 of cell viability
1 | Cc1cc2nc3ccc(N(C)C)cc3[s+]c2cc1N [Toluidine blue] | > 46 µM
2 | COc1ccc(CN2CCNCC2)c(OC)c1OC [Trimetazidine dihydrochloride] | > 46 µM
3 | CCC(=O)OC1[C@@H](N2CCCCC2)C[C@H]2[C@@H]3CC[C@H]4C[C@H](OC(C)=O)[C@@H](N5CCCCC5)C[C@]4(C)[C@H]3CC[C@]12C (some centres undefined) | > 46 µM
4 | CCOc1ccccc1OCCN[C@H](C)Cc1ccc(OC)c([S+](N)(=O)[O-])c1 [TAMSULOSIN HYDROCHLORIDE] | > 46 µM
5 | CN(C(=O)C(Cl)Cl)c1ccc(OC(=O)c2ccco2)cc1 [Diloxanide furoate] | > 46 µM
6 | Clc1ccccc1Cl [1,2-Dichlorobenzene] | > 46 µM
7 | CC[C@@H]1[C@@H]2C[C@H]3[C@H]4N(C)c5ccccc5[C@@]45C[C@H]([C@H]2[C@H]5O)[N@@]3[C@H]1O [Ajmaline] | > 46 µM
8 | COc1cccc(CCc2ccccc2OCC(CN(C)C)OC(=O)CCC(=O)O)c1 (centres undefined) [SARPOGRELATE HYDROCHLORIDE] | > 46 µM
9 | S=C1SCN(Cc2ccccc2)CN1Cc1ccccc1 [Sulbentina] | > 46 µM
10 | CC(CN(C)C)C(C)(O)Cc1ccc(Cl)cc1 (centres undefined) [CLOBUTINOL HYDROCHLORIDE] | > 46 µM
11 | CC1CCCCN1CCCOC(=O)c1ccccc1 (centres undefined) [PIPEROCAINE HYDROCHLORIDE] | > 46 µM
12 | CCCCN(CCCC)CCCOC(=O)c1ccc(N)cc1 [Butacaine] | > 46 µM
13 | COC1=C2O\C(=C/C(=O)C2=C(OC)C3=C1OC=C3)C [Khellin] | > 46 µM
14 | CCCCCCCCCCC(CO)CCCCCCCC (centres undefined) [OCTYLDODECANOL] | > 46 µM
15 | CC12C=CC(=O)C=C1[C@@H](F)CC1C2C(O)CC2(C)C1CC[C@]2(O)C(=O)CO (some centres undefined) [FLUPREDNISOLONE] | > 46 µM
16 | CC(C)c1ccc2oc3nc(N)c(C(=O)O)cc3c(=O)c2c1 [AMLEXANOX] | > 46 µM
17 | CCCn1c(=O)[nH]c(=O)c2[nH]cnc21 [3-n-PROPYLXANTHINE] | > 46 µM
18 | Oc1cccc(-c2c3nc(c(-c4cccc(O)c4)c4ccc([nH]4)c(-c4cccc(O)c4)c4nc(c(-c5cccc(O)c5)c5ccc2[nH]5)CC4)C=C3)c1 [Temoporfin] | > 46 µM
19 | CCCCc1ccc(C(=O)O)nc1 [Fusaric acid] | > 46 µM
20 | CCN(CC)CCN1C(=O)CN=C(c2ccccc2F)c2cc(Cl)ccc21 [flurazepam] | > 46 µM
21 | NC(=O)CCCCC1CCSS1 (centres undefined) [THIOCTIC ACID AMIDE] | > 46 µM
22 | CN(Cc1ccccc1)Cc1ccccc1 [Dibemethine] | > 46 µM
23 | [O-]C(=O)C1=CC=CC=C1C(C2=CC(=C([O-])C(=C2)I)I)=C\3/C=C(I)\C(=O)\C(=C3)I [IODOPHTHALEINUM NATRICUM] | > 46 µM
24 | C=C1/C(=C\C=C2/CCC[C@@]3(C)[C@@H]([C@H](C)OCCC(C)(C)O)CC[C@@H]23)C[C@@H](O)C[C@@H]1O [Maxacalcitol] | > 46 µM
25 | CN1\C(=C(\O)C2=C(C=CC=C2)[S+]1([O-])=O)C(=O)NC3=NOC(=C3)C [ISOXICAM] | > 46 µM

Row | Compound | IC50 of cell viability
26 | CCCOC(=O)Cc1ccc(OCC(=O)N(CC)CC)c(OC)c1 [Propanidid] | > 46 µM
27 | CCCc1cc(C(N)=S)ccn1 [PROTHIONAMIDE] | > 46 µM
28 | CC(C)CC(CN)CC(=O)O (centres undefined) [PREGABALIN] | > 46 µM
29 | CCC1Nc2cc(Cl)c([S+](N)(=O)[O-])cc2[S+](=O)([O-])N1 (centres undefined) [Ethiazide] | > 46 µM
30 | CNC1(c2ccccc2Cl)CCCCC1=O (centres undefined) [ESKETAMINUM] | > 46 µM
31 | CC(C)(C)CC(=O)OCC(=O)[C@@]12OC(C)(C)O[C@@H]1C[C@H]1[C@@H]3CCC4=CC(=O)C=C[C@]4(C)[C@@]3(F)[C@@H](O)C[C@]12C [Triamcinolone hexacetonide] | > 46 µM
32 | CN1CC(O)C2=C/C(=N/NC(N)=O)C(=O)C=C21 (centres undefined) [Carbazochrome] | > 46 µM
33 | CCC1CC2CC3c4[nH]c5ccc(OC)cc5c4CCN(C2)C13 (centres undefined) [Ibogaine] | > 46 µM
34 | CC(=O)/N=c1/sc([S+](N)(=O)[O-])nn1C [Methazolamide] | > 46 µM
35 | CN(C)CCc1c[nH]c2ccc(CC3COC(=O)N3)cc12 (centres undefined) [ZOLMITRIPTAN] | > 46 µM
36 | C[C@H]1CC[C@]2(OC1)O[C@@H]1C[C@@H]3[C@H]4CC[C@H]5C[C@@H](O)CC[C@]5(C)[C@@H]4CC(=O)[C@@]3(C)[C@H]1[C@@H]2C [Hecogenin] | > 46 µM
37 | CC(C)(C)c1ccc(C(O)CCCN2CCC(C(O)(c3ccccc3)c3ccccc3)CC2)cc1 (centres undefined) [TERFENADINE] | > 46 µM
38 | O=C1NC(=O)C2C3C=CC(C3)C12 (centres undefined) [NOREXIMIDUM] | > 46 µM
39 | CO/C=C(/C(=O)OC)c1ccccc1Oc1cc(Oc2ccccc2C#N)ncn1 [Azoxystrobin] | > 46 µM
40 | O.O.O.O.[Na+].[O-]c1ccccc1-c1ccccc1 [2-Phenylphenol sodium salt tetrahydrate technical] | > 46 µM
41 | COc1ccc2cc1Oc1ccc(cc1)CC1c3c(cc4c(c3Oc3cc5c(cc3OC)CCN(C)C5C2)OCO4)CCN1C (centres undefined) [CEPHARANTHINE] | > 46 µM
42 | C=CC1=C(C(=O)O)N2C(=O)C(NC(=O)/C(=N\O)c3csc(N)n3)C2SC1 (centres undefined) [CEFDINIR] | > 46 µM
43 | CC(=O)OCC(=O)[C@@]1(O)CC[C@@H]2[C@H]3CC\C4=C\C(=O)\C=C/[C@]4(C)[C@]3(F)[C@@H](O)C[C@@]12C [Isoflupredone acetate] | > 46 µM
44 | C=CC[N@@H+]1/C(=C/CO)[C@@H]2C[C@H]3[C@H]1CC[C@]31c3ccccc3N3/C=C4/[C@@H]5C[C@@H]6[C@H](CC[C@@]67c6ccccc6N(/C=C\2[C@H]31)[C@@H]47)[N@@H+](CC=C)/C5=C\CO [Alcuronium chloride] | > 46 µM
45 | CC(=O)N[C@@H](Cc1ccc(O)cc1)C(=O)O [N-ACETYL-TYROSINE] | > 46 µM
46 | Clc1ccc(Nc2nnc(Cc3ccncc3)c3ccccc23)cc1 [VATALANIBUM] | > 46 µM
47 | S=C(S)N1CCNCC1 [PIPERAZINE-CARBON DISULFIDE COMPLEX] | > 46 µM
48 | CC1C2CCC3C4C\C=C/5CC(CC[C@@]5(C)C4CC[C@]23CN1C)N(C)C (some centres undefined) [CONESSINE] | > 46 µM
49 | C=CCN1CCc2nc(N)sc2CC1 [B-HT 920] | > 46 µM
